Measured values: PubChem BioAssay AID1963834 (Molecular Pharmacology Branch, DTP, NCI, 2024)

Test system: 873145-292-R-J1-PDC complex spheroid viability
Experiment: Anticancer human tumor 873145-292-R-J1-PDC patient-derived renal clear cell carcinoma cell line growth inhibition [POLQ]
Settings: for IC50: curve of first compound; for viability, T/C: stronger effect = lower value
Description: Multicellular complex tumor spheroid response to Polymerase (POL) inhibitors (novobiocin, ART-558, RP6685) in combination with a variety of drugs and investigational agents in selected tumor cell lines
The POL inhibitors (novobiocin, ART-558, and RP6685) were evaluated both individually and in combination with standard of care and investigational anticancer small molecules within a complex spheroid model of solid tumors. . Complex spheroids include a stromal component modeled by human endothelial cells (HUVEC) and fibroblasts modeled by human mesenchymal stem cells (MSCs). The concentration ranges selected for each drug and investigational agent were based upon clinically achievable concentrations if the clinical Cmax of the agent was known.
Compounds. The drugs and investigational agents: novobiocin (NSC847541), ART-558 (NSC835418), RP-6685 (NSC848927), peposertib (NSC802822), ceralasertib (NSC780249), elimusertib (NSC800525), camonsertib (NSC841442), AZD-1390 (NSC803789), olaparib (NSC753686), talazoparib (NSC767125), rucaparib (NSC756644), sotorasib (NSC818433), MRTX-1133 (NSC836407), SN-38 (NSC673596), topotecan (NSC609699), epotoside (NSC141540), doxorubicin (NSC123127), gemcitabine (NSC613327), 5-fluorouracil (NSC19893), paclitaxel (NSC125973), vemurafenib (NSC761431), MSA-2 (NSC828583), SN-011 (NSC837082), adavosertib (NSC754352), prexasertib (NSC758257), carboplatin (NSC241240) and oxaliplatin (NSC266046), were obtained from the National Cancer Institute (NCI) Developmental Therapeutics Program Chemical Repository (21). The FDA-approved anticancer drug set is available from the Developmental Therapeutics Program at https://dtp.cancer.gov/organization/dscb/obtaining/. […] The stock solutions were prepared in dimethyl sulfoxide (DMSO, Sigma-Aldrich, St. Louis, MO, cat. D2650), except for the platinum compounds which were prepared in saline (Quality Biological, Gaithersburg, MD, cat. 114-055-101), at 800-fold the tested concentration and stored at -70 degrees C prior to their use. All drugs and investigational agents were tested over a range starting from a high concentration at or near the clinical Cmax and decreasing in half-log increments. If the clinical Cmax for an agent had not been determined, the highest concentration tested was 10 microM, except for SN-38, which was tested at a high concentration of 1 microM.
Cell Culture. All cells were maintained in an incubator at 37 degrees C and 5% CO2 with 95% humidity. The PDC lines were cultured according to standard operating procedures established by the NCI PDMR (https://pdmr.cancer.gov). Table 3 of the manuscript, lists the cell lines along with the number of the three cell types plated to form the mct-spheroids and media for tumor cell growth. After thawing, all PDC lines, except 997537-175-T-J1-PDC and 415267-285-R-J2-PDC, were cultured in Matrigel-coated flasks prepared with a working solution of 1X Ham's F-12 nutrient mix, without supplementation (Thermo Fisher Scientific, cat. 11765054), 100 U/mL penicillin-streptomycin (Thermo Fisher Scientific, cat. 15140122), and 2.5% Matrigel (Corning Inc., Corning, NY, cat. 354248) for the first three passages. The two PDC lines 997537-175-T-J1-PDC and 415267-285-R-J2-PDC were cultured on uncoated flasks. The 857933-349-R-J2-PDC line was cultured in 6C/Colon 1B media containing advanced DMEM/F-12 (Thermo Fisher Scientific, cat. 12634028), 10 mM HEPES (Thermo Fisher Scientific, cat. 15630080), 1X GlutaMAX supplement (Thermo Fisher Scientific, cat. 35050061), 0.1 mg/mL primocin (InvivoGen, San Diego, CA, cat. ant-pm-2), 10% defined fetal bovine serum, heat inactivated (HyClone Laboratories Inc., Logan, UT, cat. SH30070.03HI), 50% L-WRN conditioned media (ATCC, cat. CRL-3276), 1.25 mM N-Acetyl-L-cysteine (Sigma-Aldrich, cat. A9165), 10 mM nicotinamide (Sigma-Aldrich, cat. N0636), 1X B-27 supplement (Thermo Fisher Scientific, cat. 17504044), 1X N-2 supplement (Thermo Fisher Scientific, cat. […]

[1] = second compound 0.0316 µM, first compound 0.0316 µM
[2] = second compound 0.0316 µM, first compound 0.1 µM
[3] = second compound 0.0316 µM, first compound 0.316 µM
[4] = second compound 0.0316 µM, first compound 1 µM
[5] = second compound 0.1 µM, first compound 0.0316 µM
[6] = second compound 0.1 µM, first compound 0.1 µM
[7] = second compound 0.1 µM, first compound 0.316 µM
[8] = second compound 0.1 µM, first compound 1 µM
[9] = second compound 0.316 µM, first compound 0.0316 µM
[10] = second compound 0.316 µM, first compound 0.1 µM
[11] = second compound 0.316 µM, first compound 0.316 µM
[12] = second compound 0.316 µM, first compound 1 µM
[13] = second compound 1 µM, first compound 0.0316 µM
[14] = second compound 1 µM, first compound 0.1 µM
[15] = second compound 1 µM, first compound 0.316 µM
[16] = second compound 1 µM, first compound 1 µM
[17] = second compound 3.16 µM, first compound 0.0316 µM
[18] = second compound 3.16 µM, first compound 0.1 µM
[19] = second compound 3.16 µM, first compound 0.316 µM
[20] = second compound 3.16 µM, first compound 1 µM
[21] = second compound 10 µM, first compound 0.0316 µM
[22] = second compound 10 µM, first compound 0.1 µM
[23] = second compound 10 µM, first compound 0.316 µM
[24] = second compound 10 µM, first compound 1 µM
[25] = second compound 0.0316 µM, first compound 3.16 µM
[26] = second compound 0.0316 µM, first compound 10 µM
[27] = second compound 0.1 µM, first compound 3.16 µM
[28] = second compound 0.1 µM, first compound 10 µM
[29] = second compound 0.316 µM, first compound 3.16 µM
[30] = second compound 0.316 µM, first compound 10 µM
[31] = second compound 1 µM, first compound 3.16 µM
[32] = second compound 1 µM, first compound 10 µM
[33] = second compound 3.16 µM, first compound 3.16 µM
[34] = second compound 3.16 µM, first compound 10 µM
[35] = second compound 10 µM, first compound 3.16 µM
[36] = second compound 10 µM, first compound 10 µM
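Note: spheroids exposed to compounds for 7 days before viability readout.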
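Throughout, for viability, T/C: luminescence signal used as surrogate for viable cell content; 100% = DMSO vehicle control viability.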

SMILES: C=CCn1c(=O)c2cnc(Nc3ccc(N4CCN(C)CC4)cc3)nc2n1-c1cccc(C(C)(C)O)n1 + Nc1ccc(C#CCN(C(=O)Cc2ncc(C(F)(F)F)cc2C(F)(F)F)c2ccc(F)cc2)nn1
- IC50 (second compound 0.0316 µM): > 1 µM
- IC50 (second compound 0.1 µM): > 1 µM
- IC50 (second compound 0.316 µM): > 1 µM
- IC50 (second compound 1 µM): > 1 µM
- IC50 (second compound 3.16 µM): > 1 µM
- IC50 (second compound 10 µM): > 1 µM
- viability, T/C (second compound 0.0316 µM, first compound 0.00316 µM): 93.8%
- viability, T/C (second compound 0.0316 µM, first compound 0.01 µM): 110%
- viability, T/C [1]: 92.7%
- viability, T/C [2]: 86.6%
- viability, T/C [3]: 78.5%
- viability, T/C [4]: 77.3%
- viability, T/C (second compound 0.1 µM, first compound 0.00316 µM): 106%
- viability, T/C (second compound 0.1 µM, first compound 0.01 µM): 105%
- viability, T/C [5]: 86.4%
- viability, T/C [6]: 100%
- viability, T/C [7]: 89.2%
- viability, T/C [8]: 74.1%
- viability, T/C (second compound 0.316 µM, first compound 0.00316 µM): 91.8%
- viability, T/C (second compound 0.316 µM, first compound 0.01 µM): 99.1%
- viability, T/C [9]: 79.5%
- viability, T/C [10]: 86.4%
- viability, T/C [11]: 87.8%
- viability, T/C [12]: 72.9%
- viability, T/C (second compound 1 µM, first compound 0.00316 µM): 93.5%
- viability, T/C (second compound 1 µM, first compound 0.01 µM): 95.3%
- viability, T/C [13]: 94.1%
- viability, T/C [14]: 88.5%
- viability, T/C [15]: 90.6%
- viability, T/C [16]: 69.3%
- viability, T/C (second compound 3.16 µM, first compound 0.00316 µM): 105%
- viability, T/C (second compound 3.16 µM, first compound 0.01 µM): 103%
- viability, T/C [17]: 88.4%
- viability, T/C [18]: 90.2%
- viability, T/C [19]: 81.4%
- viability, T/C [20]: 79.8%
- viability, T/C (second compound 10 µM, first compound 0.00316 µM): 110%
- viability, T/C (second compound 10 µM, first compound 0.01 µM): 106%
- viability, T/C [21]: 108%
- viability, T/C [22]: 101%
- viability, T/C [23]: 77.9%
- viability, T/C [24]: 77.8%

SMILES: CC1COCCN1c1cc(-c2ccnn2C)c2ccnc(-c3ccn[nH]3)c2n1 (stereo unspecified) + Nc1ccc(C#CCN(C(=O)Cc2ncc(C(F)(F)F)cc2C(F)(F)F)c2ccc(F)cc2)nn1
- IC50 (second compound 0.0316 µM): > 10 µM
- IC50 (second compound 0.1 µM): > 10 µM
- IC50 (second compound 0.316 µM): > 10 µM
- IC50 (second compound 1 µM): 6.51 µM
- IC50 (second compound 3.16 µM): > 10 µM
- IC50 (second compound 10 µM): > 10 µM
- viability, T/C [1]: 87.5%
- viability, T/C [2]: 89.8%
- viability, T/C [3]: 79.2%
- viability, T/C [4]: 55.6%
- viability, T/C [25]: 56.2%
- viability, T/C [26]: 55.3%
- viability, T/C [5]: 102%
- viability, T/C [6]: 80.7%
- viability, T/C [7]: 77.7%
- viability, T/C [8]: 53.8%
- viability, T/C [27]: 57.6%
- viability, T/C [28]: 54.7%
- viability, T/C [9]: 95.5%
- viability, T/C [10]: 99.1%
- viability, T/C [11]: 70.2%
- viability, T/C [12]: 60.9%
- viability, T/C [29]: 51.7%
- viability, T/C [30]: 53.5%
- viability, T/C [13]: 96.2%
- viability, T/C [14]: 86.9%
- viability, T/C [15]: 78.8%
- viability, T/C [16]: 58.9%
- viability, T/C [31]: 58.5%
- viability, T/C [32]: 45.9%
- viability, T/C [17]: 88.7%
- viability, T/C [18]: 94.1%
- viability, T/C [19]: 79.1%
- viability, T/C [20]: 59.7%
- viability, T/C [33]: 49.3%
- viability, T/C [34]: 66.1%
- viability, T/C [21]: 102%
- viability, T/C [22]: 90.1%
- viability, T/C [23]: 80%
- viability, T/C [24]: 64.6%
- viability, T/C [35]: 55.9%
- viability, T/C [36]: 60.1%

SMILES: CCCS(=O)(=O)Nc1ccc(F)c(C(=O)c2c[nH]c3ncc(-c4ccc(Cl)cc4)cc23)c1F + Nc1ccc(C#CCN(C(=O)Cc2ncc(C(F)(F)F)cc2C(F)(F)F)c2ccc(F)cc2)nn1
- IC50 (second compound 0.0316 µM): > 10 µM
- IC50 (second compound 0.1 µM): > 10 µM
- IC50 (second compound 0.316 µM): > 10 µM
- IC50 (second compound 1 µM): > 10 µM
- IC50 (second compound 3.16 µM): > 10 µM
- IC50 (second compound 10 µM): > 10 µM
- viability, T/C [1]: 106%
- viability, T/C [2]: 106%
- viability, T/C [3]: 115%
- viability, T/C [4]: 97%
- viability, T/C [25]: 103%
- viability, T/C [26]: 71.2%
- viability, T/C [5]: 103%
- viability, T/C [6]: 110%
- viability, T/C [7]: 91.9%
- viability, T/C [8]: 98%
- viability, T/C [27]: 105%
- viability, T/C [28]: 63.3%
- viability, T/C [9]: 109%
- viability, T/C [10]: 107%
- viability, T/C [11]: 93.3%
- viability, T/C [12]: 112%
- viability, T/C [29]: 99.2%
- viability, T/C [30]: 75.6%
- viability, T/C [13]: 98.7%
- viability, T/C [14]: 98.9%
- viability, T/C [15]: 102%
- viability, T/C [16]: 102%
- viability, T/C [31]: 91.1%
- viability, T/C [32]: 63%
- viability, T/C [17]: 106%
- viability, T/C [18]: 113%
- viability, T/C [19]: 108%
- viability, T/C [20]: 108%
- viability, T/C [33]: 101%
- viability, T/C [34]: 75.4%
- viability, T/C [21]: 121%
- viability, T/C [22]: 121%
- viability, T/C [23]: 111%
- viability, T/C [24]: 107%
- viability, T/C [35]: 110%
- viability, T/C [36]: 78.5%
